Reference: ChEMBL document CHEMBL4507285, “Data for DCP probe MRL-SYKi” (2021)

Tests used:
[1] = target: Cyclin-dependent kinase-like 3 (Homo sapiens) (UniProt Q8IVW4); conditions: Compound concentration 100.0 nM
[2] = target: Beta-1 adrenergic receptor (Homo sapiens) (UniProt P08588); conditions: Compound concentration 10.0 uM
[3] = target: RAF proto-oncogene serine/threonine-protein kinase (Homo sapiens) (UniProt P04049); conditions: Compound concentration 100.0 nM
[4] = target: Aurora kinase B (Homo sapiens) (UniProt Q96GD4); conditions: Compound concentration 100.0 nM
[5] = target: Tyrosine-protein kinase SYK (Homo sapiens, UniProt P43405); conditions: Compound concentration 100.0 nM
[6] = target: Serine/threonine-protein kinase BRSK1 (Homo sapiens) (UniProt Q8TDC3); conditions: Compound concentration 100.0 nM
[7] = test system: Proto-oncogene tyrosine-protein kinase receptor Ret (Homo sapiens), P07949 [M918T]; conditions: Compound concentration 100.0 nM
[8] = target: Serine/threonine-protein kinase WNK1 (Homo sapiens) (UniProt Q9H4A3); conditions: Compound concentration 100.0 nM
[9] = target: Serine/threonine-protein kinase Nek6 (Homo sapiens) (UniProt Q9HC98); conditions: Compound concentration 100.0 nM
Chain of Serine/threonine-protein kinase Nek6 (Homo sapiens) (Q9HC98 whole entry): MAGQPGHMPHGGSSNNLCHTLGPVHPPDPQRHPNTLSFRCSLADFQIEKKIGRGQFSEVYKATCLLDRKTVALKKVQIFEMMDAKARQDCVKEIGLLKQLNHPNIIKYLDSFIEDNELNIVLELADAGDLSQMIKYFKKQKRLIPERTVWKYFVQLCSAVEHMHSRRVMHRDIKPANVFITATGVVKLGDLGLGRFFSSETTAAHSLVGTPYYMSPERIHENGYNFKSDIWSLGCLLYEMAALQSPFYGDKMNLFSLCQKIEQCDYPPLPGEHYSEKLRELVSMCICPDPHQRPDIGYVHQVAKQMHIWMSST

[10] = target: Serine/threonine-protein kinase Sgk1 (Homo sapiens) (UniProt O00141); conditions: Compound concentration 100.0 nM
[11] = test system: Proto-oncogene tyrosine-protein kinase receptor Ret (Homo sapiens), P07949 [V804M]; conditions: Compound concentration 100.0 nM
[12] = target: Interleukin-1 receptor-associated kinase 4 (Homo sapiens) (UniProt Q9NWZ3); conditions: Compound concentration 100.0 nM
[13] = target: Non-receptor tyrosine-protein kinase TYK2 (Homo sapiens) (UniProt P29597); conditions: Compound concentration 100.0 nM
[14] = target: Muscarinic acetylcholine receptor M5 (Homo sapiens) (UniProt P08912); conditions: Compound concentration 10.0 uM
[15] = target: Myosin-IIIb (Homo sapiens) (UniProt Q8WXR4); conditions: Compound concentration 100.0 nM
[16] = test system: Hepatocyte growth factor receptor (Homo sapiens), P08581 [Y1235D]; conditions: Compound concentration 100.0 nM
[17] = target: Ephrin type-A receptor 5 (Homo sapiens) (UniProt P54756); conditions: Compound concentration 100.0 nM
[18] = test system: Phosphatidylinositol 4,5-bisphosphate 3-kinase catalytic subunit alpha isoform (Homo sapiens), P42336 [M1043I]; conditions: Compound concentration 100.0 nM
[19] = target: Death-associated protein kinase 1 (Homo sapiens) (UniProt P53355); conditions: Compound concentration 100.0 nM
[20] = target: MAP kinase-activated protein kinase 5 (Homo sapiens) (UniProt Q8IW41); conditions: Compound concentration 100.0 nM
[21] = target: Rho-associated protein kinase 1 (Homo sapiens) (UniProt Q13464); conditions: Compound concentration 100.0 nM
[22] = target: Ephrin type-A receptor 7 (Homo sapiens) (UniProt Q15375); conditions: Compound concentration 100.0 nM
Chain of Ephrin type-A receptor 7 (Homo sapiens) (Q15375 28-998 limits assumed): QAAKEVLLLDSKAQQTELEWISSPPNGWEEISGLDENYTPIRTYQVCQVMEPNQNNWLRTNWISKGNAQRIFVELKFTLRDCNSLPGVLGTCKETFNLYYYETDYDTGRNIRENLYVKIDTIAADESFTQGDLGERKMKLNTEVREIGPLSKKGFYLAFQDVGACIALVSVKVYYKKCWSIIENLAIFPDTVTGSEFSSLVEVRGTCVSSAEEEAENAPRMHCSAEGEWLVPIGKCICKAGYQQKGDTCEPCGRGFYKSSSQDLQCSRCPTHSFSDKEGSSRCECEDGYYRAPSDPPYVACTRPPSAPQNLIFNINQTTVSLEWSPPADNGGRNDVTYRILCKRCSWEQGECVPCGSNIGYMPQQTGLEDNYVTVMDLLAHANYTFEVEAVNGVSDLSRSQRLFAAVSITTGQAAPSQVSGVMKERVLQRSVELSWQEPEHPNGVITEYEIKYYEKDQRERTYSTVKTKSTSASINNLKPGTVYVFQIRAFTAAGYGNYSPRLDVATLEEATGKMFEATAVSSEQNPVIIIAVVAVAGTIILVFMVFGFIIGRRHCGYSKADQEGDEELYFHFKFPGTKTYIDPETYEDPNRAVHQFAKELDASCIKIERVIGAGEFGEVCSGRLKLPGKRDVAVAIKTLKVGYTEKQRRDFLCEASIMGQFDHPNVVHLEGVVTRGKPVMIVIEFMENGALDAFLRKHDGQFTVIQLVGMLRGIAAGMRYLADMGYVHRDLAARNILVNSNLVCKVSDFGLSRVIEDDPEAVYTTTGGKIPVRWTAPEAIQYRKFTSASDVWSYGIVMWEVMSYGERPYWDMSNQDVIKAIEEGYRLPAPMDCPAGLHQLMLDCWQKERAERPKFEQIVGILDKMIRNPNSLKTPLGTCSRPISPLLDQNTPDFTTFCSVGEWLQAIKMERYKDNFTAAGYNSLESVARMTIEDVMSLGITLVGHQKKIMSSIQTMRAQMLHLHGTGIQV

[23] = test system: Epidermal growth factor receptor (Homo sapiens), P00533 [L858R,T790M]; conditions: Compound concentration 100.0 nM
[24] = target: Phosphatidylinositol 4-phosphate 3-kinase C2 domain-containing subunit beta (Homo sapiens) (UniProt O00750); conditions: Compound concentration 100.0 nM
[25] = target: Casein kinase I isoform delta (Homo sapiens) (UniProt P48730); conditions: Compound concentration 100.0 nM
[26] = target: Discoidin domain-containing receptor 2 (Homo sapiens) (UniProt Q16832); conditions: Compound concentration 100.0 nM
[27] = target: Myosin light chain kinase (Homo sapiens) (UniProt Q32MK0); conditions: Compound concentration 100.0 nM
Chain of Myosin light chain kinase (Homo sapiens) (Q32MK0 whole entry): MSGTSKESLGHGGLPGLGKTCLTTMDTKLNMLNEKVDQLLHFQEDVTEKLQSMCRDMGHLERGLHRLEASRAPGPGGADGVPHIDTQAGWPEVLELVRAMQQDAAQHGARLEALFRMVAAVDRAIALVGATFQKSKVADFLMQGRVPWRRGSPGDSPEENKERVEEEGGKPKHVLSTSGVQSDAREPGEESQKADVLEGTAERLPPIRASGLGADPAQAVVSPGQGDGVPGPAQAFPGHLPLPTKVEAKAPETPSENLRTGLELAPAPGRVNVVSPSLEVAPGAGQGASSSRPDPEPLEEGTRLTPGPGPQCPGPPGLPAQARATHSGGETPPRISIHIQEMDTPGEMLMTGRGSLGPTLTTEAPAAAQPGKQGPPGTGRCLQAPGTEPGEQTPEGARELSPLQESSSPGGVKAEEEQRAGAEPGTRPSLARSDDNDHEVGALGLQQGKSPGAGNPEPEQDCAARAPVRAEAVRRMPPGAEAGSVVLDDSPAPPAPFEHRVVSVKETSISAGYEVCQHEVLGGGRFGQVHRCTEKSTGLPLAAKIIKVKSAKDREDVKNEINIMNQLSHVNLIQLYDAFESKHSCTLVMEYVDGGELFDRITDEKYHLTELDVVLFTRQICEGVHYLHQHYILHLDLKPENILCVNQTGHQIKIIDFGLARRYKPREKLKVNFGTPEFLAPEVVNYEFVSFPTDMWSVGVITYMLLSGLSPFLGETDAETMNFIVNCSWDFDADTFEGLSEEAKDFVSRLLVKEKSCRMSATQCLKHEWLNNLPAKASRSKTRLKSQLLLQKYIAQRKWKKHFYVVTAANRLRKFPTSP

[28] = target: Ribosomal protein S6 kinase alpha-1 (Homo sapiens) (UniProt Q15418); conditions: Compound concentration 100.0 nM
[29] = target: Serine/threonine-protein kinase Nek10 (Homo sapiens) (UniProt Q6ZWH5); conditions: Compound concentration 100.0 nM
[30] = test system: Tyrosine-protein kinase ABL1 (Homo sapiens), P00519 [T315I]; conditions: Compound concentration 100.0 nM
[31] = target: Glycogen synthase kinase-3 alpha (Homo sapiens) (UniProt P49840); conditions: Compound concentration 100.0 nM
[32] = target: Serine/threonine-protein kinase WNK4 (Homo sapiens) (UniProt Q96J92); conditions: Compound concentration 100.0 nM
[33] = target: Casein kinase II subunit alpha (Homo sapiens) (UniProt P68400); conditions: Compound concentration 100.0 nM
[34] = target: Receptor tyrosine-protein kinase erbB-2 (Homo sapiens) (UniProt P04626); conditions: Compound concentration 100.0 nM
[35] = target: Mitogen-activated protein kinase kinase kinase 20 (Homo sapiens) (UniProt Q9NYL2); conditions: Compound concentration 100.0 nM
[36] = target: Leucine-rich repeat serine/threonine-protein kinase 2 (Homo sapiens) (UniProt Q5S007); conditions: Compound concentration 100.0 nM
[37] = target: Ephrin type-A receptor 8 (Homo sapiens) (UniProt P29322); conditions: Compound concentration 100.0 nM
[38] = target: Serine/threonine-protein kinase MARK2 (Homo sapiens) (UniProt Q7KZI7); conditions: Compound concentration 100.0 nM
[39] = target: Serine/threonine-protein kinase N1 (Homo sapiens) (UniProt Q16512); conditions: Compound concentration 100.0 nM
[40] = target: Tyrosine-protein kinase ITK/TSK (Homo sapiens) (UniProt Q08881); conditions: Compound concentration 100.0 nM
Chain of Tyrosine-protein kinase ITK/TSK (Homo sapiens) (Q08881 whole entry): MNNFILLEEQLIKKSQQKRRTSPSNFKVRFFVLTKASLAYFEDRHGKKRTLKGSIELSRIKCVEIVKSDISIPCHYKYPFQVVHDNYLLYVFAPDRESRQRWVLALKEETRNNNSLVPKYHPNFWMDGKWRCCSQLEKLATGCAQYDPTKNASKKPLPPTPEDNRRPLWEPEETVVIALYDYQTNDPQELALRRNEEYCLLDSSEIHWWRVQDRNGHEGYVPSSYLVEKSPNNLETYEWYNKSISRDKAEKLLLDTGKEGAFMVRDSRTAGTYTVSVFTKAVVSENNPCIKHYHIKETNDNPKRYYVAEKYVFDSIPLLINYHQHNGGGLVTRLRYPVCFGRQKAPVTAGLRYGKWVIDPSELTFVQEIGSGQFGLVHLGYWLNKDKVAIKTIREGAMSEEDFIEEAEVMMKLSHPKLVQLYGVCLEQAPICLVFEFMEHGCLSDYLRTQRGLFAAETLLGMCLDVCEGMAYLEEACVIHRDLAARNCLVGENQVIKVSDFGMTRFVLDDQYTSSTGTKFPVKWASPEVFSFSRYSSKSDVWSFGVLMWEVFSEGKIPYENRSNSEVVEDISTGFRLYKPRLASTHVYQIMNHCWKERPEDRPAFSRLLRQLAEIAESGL

[41] = target: Serine/threonine-protein kinase PLK4 (Homo sapiens) (UniProt O00444); conditions: Compound concentration 100.0 nM
Chain of Serine/threonine-protein kinase PLK4 (Homo sapiens) (O00444 whole entry): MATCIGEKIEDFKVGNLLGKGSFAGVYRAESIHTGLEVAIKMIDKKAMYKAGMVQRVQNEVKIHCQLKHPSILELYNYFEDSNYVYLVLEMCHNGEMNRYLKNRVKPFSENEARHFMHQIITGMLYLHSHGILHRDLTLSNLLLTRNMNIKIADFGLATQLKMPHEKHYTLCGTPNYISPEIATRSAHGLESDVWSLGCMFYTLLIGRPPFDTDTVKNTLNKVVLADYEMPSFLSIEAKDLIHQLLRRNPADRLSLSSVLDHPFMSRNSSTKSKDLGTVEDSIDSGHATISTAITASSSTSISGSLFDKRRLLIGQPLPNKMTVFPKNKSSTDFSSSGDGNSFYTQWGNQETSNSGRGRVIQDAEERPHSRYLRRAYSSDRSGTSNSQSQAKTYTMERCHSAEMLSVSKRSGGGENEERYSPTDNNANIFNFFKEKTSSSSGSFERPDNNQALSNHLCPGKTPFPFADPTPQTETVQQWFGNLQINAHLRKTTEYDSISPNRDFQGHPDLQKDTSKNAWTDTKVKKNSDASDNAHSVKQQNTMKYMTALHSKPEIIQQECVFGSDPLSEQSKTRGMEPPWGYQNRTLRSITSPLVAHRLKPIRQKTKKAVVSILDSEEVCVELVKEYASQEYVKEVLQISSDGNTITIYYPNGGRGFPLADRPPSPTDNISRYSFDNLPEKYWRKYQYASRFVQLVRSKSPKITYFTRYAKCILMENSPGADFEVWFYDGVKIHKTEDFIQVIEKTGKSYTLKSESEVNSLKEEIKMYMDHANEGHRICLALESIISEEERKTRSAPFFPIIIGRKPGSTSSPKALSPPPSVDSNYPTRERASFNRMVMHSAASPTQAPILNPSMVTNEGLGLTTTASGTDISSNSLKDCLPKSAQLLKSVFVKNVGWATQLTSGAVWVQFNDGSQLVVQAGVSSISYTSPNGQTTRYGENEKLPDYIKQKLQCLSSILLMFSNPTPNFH

[42] = test system: Receptor-type tyrosine-protein kinase FLT3 (Homo sapiens), P36888 [D835Y]; conditions: Compound concentration 100.0 nM
[43] = target: Tyrosine-protein kinase receptor UFO (Homo sapiens) (UniProt P30530); conditions: Compound concentration 100.0 nM
Chain of Tyrosine-protein kinase receptor UFO (Homo sapiens) (P30530 whole entry): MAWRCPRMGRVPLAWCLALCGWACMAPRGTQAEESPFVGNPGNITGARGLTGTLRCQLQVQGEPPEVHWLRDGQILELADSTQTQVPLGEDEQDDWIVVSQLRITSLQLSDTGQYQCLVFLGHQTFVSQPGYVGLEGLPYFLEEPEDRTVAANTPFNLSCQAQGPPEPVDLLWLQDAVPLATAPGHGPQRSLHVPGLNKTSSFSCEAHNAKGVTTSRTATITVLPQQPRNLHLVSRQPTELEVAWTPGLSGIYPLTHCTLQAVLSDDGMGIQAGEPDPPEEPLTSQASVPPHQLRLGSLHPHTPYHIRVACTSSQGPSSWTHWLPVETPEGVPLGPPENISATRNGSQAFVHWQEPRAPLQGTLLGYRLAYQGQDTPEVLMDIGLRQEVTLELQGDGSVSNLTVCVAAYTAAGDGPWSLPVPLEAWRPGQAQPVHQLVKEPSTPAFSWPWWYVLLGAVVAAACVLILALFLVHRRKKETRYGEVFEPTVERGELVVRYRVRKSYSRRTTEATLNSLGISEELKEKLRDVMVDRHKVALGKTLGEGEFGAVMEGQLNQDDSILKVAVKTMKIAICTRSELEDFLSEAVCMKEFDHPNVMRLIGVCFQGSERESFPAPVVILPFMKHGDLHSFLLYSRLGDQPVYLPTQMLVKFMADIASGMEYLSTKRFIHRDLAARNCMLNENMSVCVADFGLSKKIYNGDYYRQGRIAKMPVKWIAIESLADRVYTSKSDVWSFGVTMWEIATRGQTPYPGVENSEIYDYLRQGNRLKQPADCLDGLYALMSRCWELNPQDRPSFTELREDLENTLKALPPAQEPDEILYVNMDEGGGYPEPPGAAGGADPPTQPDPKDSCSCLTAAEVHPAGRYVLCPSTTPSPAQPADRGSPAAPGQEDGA

[44] = target: Eukaryotic translation initiation factor 2-alpha kinase 1 (Homo sapiens) (UniProt Q9BQI3); conditions: Compound concentration 100.0 nM
[45] = target: Mitogen-activated protein kinase 11 (Homo sapiens) (UniProt Q15759); conditions: Compound concentration 100.0 nM

Chain of Beta-1 adrenergic receptor (Homo sapiens) (P08588 whole entry, looked up): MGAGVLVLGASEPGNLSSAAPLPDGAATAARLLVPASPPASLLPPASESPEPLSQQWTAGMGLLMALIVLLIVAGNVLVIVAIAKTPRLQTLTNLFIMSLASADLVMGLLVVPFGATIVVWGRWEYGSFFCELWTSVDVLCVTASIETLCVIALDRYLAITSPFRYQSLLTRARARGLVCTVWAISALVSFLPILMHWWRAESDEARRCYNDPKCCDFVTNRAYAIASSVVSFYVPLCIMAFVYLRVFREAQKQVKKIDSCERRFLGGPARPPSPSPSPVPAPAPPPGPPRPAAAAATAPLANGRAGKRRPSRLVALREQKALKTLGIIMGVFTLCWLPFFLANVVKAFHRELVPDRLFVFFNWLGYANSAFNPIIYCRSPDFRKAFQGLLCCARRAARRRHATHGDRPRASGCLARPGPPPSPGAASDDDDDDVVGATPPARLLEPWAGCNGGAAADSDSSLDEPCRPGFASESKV

**Q.** What does the source list for `Cc1ccc(-c2cnc([C@@]3(O)CC[C@H](C(=O)O)C(C)(C)C3)s2)cc1Nc1cccc(C(F)(F)F)n1` [MRL-SYKi-NC]?
**A.** residual activity [1]: 100%; inhibition [2]: 10.3%; residual activity [3]: 100%; residual activity [4]: 93.1%; residual activity [5]: 90%; residual activity [6]: 100%; residual activity [7]: 100%; residual activity [8]: 100%; residual activity [9]: 89.7%; residual activity [10]: 64.9%; residual activity [11]: 100%; residual activity [12]: 48.8%; residual activity [13]: 100%; inhibition [14]: -4.28%; residual activity [15]: 100%; residual activity [16]: 77.3%; residual activity [17]: 100%; residual activity [18]: 90.4%; residual activity [19]: 100%; residual activity [20]: 97.7%; residual activity [21]: 100%; residual activity [22]: 94.2%; residual activity [23]: 100%; residual activity [24]: 69.2%; residual activity [25]: 92.5%; residual activity [26]: 100%; residual activity [27]: 90.9%; residual activity [28]: 100%; residual activity [29]: 97.3%; residual activity [30]: 100%; residual activity [31]: 86.8%; residual activity [32]: 31.8%; residual activity [33]: 100%; residual activity [34]: 100%; residual activity [35]: 96.9%; residual activity [36]: 87.4%; residual activity [37]: 88.9%; residual activity [38]: 100%; residual activity [39]: 100%; residual activity [40]: 94.7%; residual activity [41]: 56.5%; residual activity [42]: 94.1%; residual activity [43]: 100%; residual activity [44]: 83.4%; residual activity [45]: 98.7%

**Q.** `Cc1cc(Nc2nccc(C)n2)cc(-c2cnc([C@@]3(O)CC[C@H](C(=O)O)C(C)(C)C3)s2)c1` [MRL-SYKi] was tested. Which residual activity [1] did it give?
**A.** 100%

**Q.** And the inhibition [2]?
**A.** -9.08%

**Q.** And the residual activity [3]?
**A.** 100%

**Q.** What about the residual activity [4] of the same compound?
**A.** 89%

**Q.** And the residual activity [5]?
**A.** 0.9%

**Q.** What about the residual activity [6] of the same compound?
**A.** 100%

**Q.** What about the residual activity [7] of the same compound?
**A.** 95.5%

**Q.** What about the residual activity [8] of the same compound?
**A.** 100%

**Q.** And the residual activity [9]?
**A.** 100%

**Q.** And the residual activity [10]?
**A.** 100%

**Q.** And the residual activity [11]?
**A.** 81.3%

**Q.** What about the residual activity [12] of the same compound?
**A.** 100%

**Q.** And the residual activity [13]?
**A.** 68.6%

**Q.** And the inhibition [14]?
**A.** 0.943%

**Q.** What about the residual activity [15] of the same compound?
**A.** 76.1%

**Q.** And the residual activity [16]?
**A.** 89.9%

**Q.** And the residual activity [17]?
**A.** 94%

**Q.** And the residual activity [18]?
**A.** 61.8%

**Q.** And the residual activity [19]?
**A.** 100%

**Q.** And the residual activity [20]?
**A.** 100%

**Q.** What about the residual activity [21] of the same compound?
**A.** 70.7%

**Q.** And the residual activity [22]?
**A.** 81.3%

**Q.** What about the residual activity [23] of the same compound?
**A.** 46.2%

**Q.** And the residual activity [24]?
**A.** 100%

**Q.** What about the residual activity [25] of the same compound?
**A.** 100%

**Q.** What about the residual activity [26] of the same compound?
**A.** 100%

**Q.** And the residual activity [27]?
**A.** 100%

**Q.** What about the residual activity [28] of the same compound?
**A.** 100%

**Q.** And the residual activity [29]?
**A.** 53.1%

**Q.** And the residual activity [30]?
**A.** 100%

**Q.** And the residual activity [31]?
**A.** 100%

**Q.** What about the residual activity [32] of the same compound?
**A.** 100%

**Q.** What about the residual activity [33] of the same compound?
**A.** 100%

**Q.** What about the residual activity [34] of the same compound?
**A.** 89.6%

**Q.** And the residual activity [35]?
**A.** 92.5%

**Q.** What about the residual activity [36] of the same compound?
**A.** 87.1%

**Q.** And the residual activity [37]?
**A.** 100%

**Q.** What about the residual activity [38] of the same compound?
**A.** 100%

**Q.** What about the residual activity [39] of the same compound?
**A.** 96.9%

**Q.** And the residual activity [40]?
**A.** 81%

**Q.** And the residual activity [41]?
**A.** 100%

**Q.** And the residual activity [42]?
**A.** 83.4%

**Q.** What about the residual activity [43] of the same compound?
**A.** 100%

**Q.** And the residual activity [44]?
**A.** 100%

**Q.** And the residual activity [45]?
**A.** 100%
